Measured values reported in patent publication US9192601B2, “Methods for enhancing muscle performance and tone” (Salk Institute for Biological Studies, priority 2006, dated 2015).
“Also recorded” adds a separate entry of the source.

Key:
[1] = test system: p44/42 MAPK; assay: Western blot of phospho-p44/42 MAPK in quadriceps; assay type: in vivo, mouse; settings: sedentary or trained muscles
From the text: (§1) Exercise training is known to activate kinases, such as p44/42 MAPK and AMPK, which regulate gene expression in skeletal muscle (Chen et al., Diabetes, 52:2205-12, 2003; Goodyear et al., Am. J. Physiol, 271:[…]-8, 1996). AMPK affects skeletal muscle gene expression and oxidative metabolism (Chen et al., Diabetes. 52: 2205-12, 2003, Reznick et al., J. Physiol. 574: 33-9, 2006). The interaction between exercise-regulated kinases and PPARδ signaling is described in this Example. The levels of phospho-p44/42 MAPK and phospho-AMPK a subunit and total AMPK were determined in protein homogenates of quadriceps muscle by Western blot. Antibodies specific for phospho-p44/42 MAPK, phospho- and total-AMPK αl antibodies were obtained from Cell Signaling. The phospho-specific AMPK αl antibody recognizes the key activating threonine in the activation loop.

[2] = Muscle triglyceride (mTG) content; assay type: in vivo, mouse
Procedure: Altered triglycerides can be used to access changes in muscle oxidative capacity. Muscle triglyceride (mTG) content was measured as previously described (Wang et al., PLoC Biol, 2:e294, 2004) using a kit from Thermo Electron Corporation. […] Gene and/or protein expression that is induced by a combination of exercise and drug treatment (e.g., PPARδ agonist administration) but not by either input alone is believed to be a new discovery. This type of response can be used to further characterize the intersection of pharmacologic and physiologic genetic networks. For example, one or more genes and/or proteins uniquely regulated by one or more drugs {e.g., PPARδ agonists) and exercise can be used as markers, for instance, of illicitly boosting performance in professional and/or amateur athletes.

[3] = test system: quadriceps muscle; assay: Real time quantitative PCR of gene expression in quadriceps muscle; assay type: in vivo, mouse
Procedure: Animals were euthanized by carbon dioxide asphyxiation 72 hours after the final treatment. Gastrocnemius and quadriceps muscles were isolated, frozen and stored at −80° C. for future analysis. Total RNA was prepared from quadriceps muscle using TRIzoL™ reagent (Invitrogen, Carlsbad, Calif., USA) in conformance with manufacturer's instructions. Real time quantitative PCR (QPCR) was used to determine expression levels of uncoupling protein 3 (UCP3), muscle carnitine palmitoyl transferase I (mCPT I) and pyruvate dehydrogenase kinase 4 (PDK4) using primers known to those of ordinary skill in the art.
In addition to affecting the contractile apparatus of skeletal muscle, exercise training also increases skeletal muscle mitochondrial density (e.g., Freyssenet et al., Arch. Physiol. Biochem., 104(2): 129-141, 1996). […] Mice in all groups were acclimated to moderate treadmill running and basal running endurance was determined as described in Example 1. Thereafter, mice in the exercise-trained groups received four weeks (5 days/week) of exercise training on a treadmill inclined at 5 degrees. […] At the end of four weeks, all exercise-trained mice were running for 50 min/day at 18 m/min. […] Unless otherwise noted, V, GW, Tr and GW+Tr subjects described in this and the examples below were similarly treated. At the end of the drug treatment and/or training protocol (Week 5) 6 mice per group were subjected to the running test. […] RNA was prepared real time quantitative PCR performed as described in Example 1.

[4] = Exercise effect in healthy adult human subjects (Example 9); assay type: in vivo; settings: 1 to 20 mg per day oral with aerobic exercise
Procedure: Healthy adult human subjects perform aerobic exercise (e.g., running) for at least 30 minutes (e.g., 30-90 minutes) for at least 3-4 days per week (e.g., 3-7 days per week) for at least 2 weeks (e.g., at least 4-12 weeks). The exercise is performed at 40%-50% maximal heart rate, […] maximal heart rate, 60%-70% maximal heart rate, or 75%-80% maximal heart rate, where maximum heart rate for a human subject is calculated as: 220 bps−(age of the subject). […] Subjects can continue to perform aerobic exercise while receiving GW1516. […] The exercise effect achieved in the treated subjects (e.g., running endurance) can be compared to such an effect in untreated subjects. Exercise effect can be measured using methods known in the art, such as measuring aerobic or running endurance (for example measuring distance run until exhaustion or amount of time to run a particular distance). In some instances, the exercise effect of interest is increased in treated subjects by at least 5%, such as at least 10% as compared to untreated subjects.

[5] = test system: myosin heavy chain (MHC); assay: Myosin heavy chain (MHC) expression; assay type: in vivo, mouse
Procedure: In addition to its effects on the fiber type, exercise training increased skeletal muscle mitochondrial biogenesis, which can be measured as a function of mitochondrial DNA expression levels using quantitative real time PCR (QPCR). Mitochondrial DNA expression levels were determined in muscles of V, GW, Tr, and GW+Tr subjects using quantitative real time PCR. […] Such an increase is known to contribute to enhanced endurance capacity (e.g., Holloszy, Med. Sci. Sports 7:155-64, 1975). Slow-twitch and fast-twitch muscle fiber types also can be distinguished by myosin isoform expression (Gauthier and Lowey, J. Cell Biol. 81:10-25, 1979; Fitzsimons and Hoh, Biochem. J. 193:229-33, 1981). […] Therefore, at least at the transcriptional level, the PPARδ agonist was capable of inducing some proteins characteristic of a slow-twitch muscle fiber phenotype.

[6] = test system: epididymal white adipose; assay: Epididymal fat to body weight ratio and H&E staining of white adipose; assay type: in vivo, mouse; settings: GW1516 in combination with exercise
Procedure: Hematoxylin and eosin (H&E) staining of white adipose tissue paraffin sections was performed as previously described (Wang et al., PLoS Biol., 2:e294, 2004; Wang et al., Cell, 113:159-70, 2003).

[7] = test system: AMPK; assay: Western blot of phospho-AMPK in quadriceps; assay type: in vivo, mouse; settings: sedentary or trained muscles
From the text: as §1

[8] = test system: type I (slow oxidative) muscle fibers; assay: Meta-chromatic staining of gastrocnemius fiber types; assay type: in vivo, mouse
From the text: In this assay, muscle fibers with high ATPase activity {e.g., type I (slow oxidative) muscle fibers) are darkly stained.

## Cc1cc(SCc2sc(-c3ccc(C(F)(F)F)cc3)nc2C)ccc1OCC(=O)O [GW1516, (2-methyl-4(((4-methyl-2-(4-trifluoromethylphenyl)-1,3-thiazol-5-yl)methyl)sulfanyl)phenoxy)acetic acid]
[1]
  activation of p44/42: failed to activate
[2]; GW1516-treated exercise trained mice
  exercise-induced increase in muscle triglycerides: completely reversed
[2]; sedentary mice
  mTG content vs vehicle: comparable
[3]; 2-5 mg/kg/day
  earliest detection of changes in UCP3, mCPT I, PDK4 expression: 4 days
[3]; GW1516 alone
  expression of SCDl, FAS, SREBPIc, FAT/CD36, LPL: no response
[3]; GW1516 alone, four weeks, quadriceps
  expression of UCP3, mCPT I, and PDK4: induced; also recorded: upregulated
[3]; GW1516 combined with exercise
  expression of SCDl, FAS, SREBPIc, FAT/CD36, LPL: robustly induced
[3]; GW1516 with exercise vs GW1516 alone
  expression of UCP3, mCPT I, and PDK4: no further induction
[4]
  increase of exercise effect vs untreated subjects: at least 5%
[5]; GW1516 combined with exercise
  MHC I and MHC lib expression: did not induce additional changes
[5]; sedentary mice
  expression of MHC Ha: did not alter
[5]; sedentary mice vs vehicle
  expression of MHC I: increased
  expression of MHC lib: decreased
[6]
  cross-sectional area of the adipocytes: decreased
[7]
  activation of AMPK: failed to activate
[8]; GW1516 treatment and exercise training
  number of type I muscle fibers in exercised muscle: significantly increased
[8]; sedentary mice, gastrocnemius
  proportion of type I muscle fibers vs vehicle: no significant difference
[8]; trained mice
  increase in proportion of type I fibers vs vehicle-treated sedentary mice: 38%
